The text below walks through data of patent US20230265151A1, “GIP/GLP1 CO-AGONIST COMPOUNDS” (priority 2020, published 2023).

Common to all, as to type: cell-based
One test addresses T1, hGIPR (Homo sapiens, UniProt P48546).
T1 construct: expressed in transfected cells
T1 sequence (P48546 22-466): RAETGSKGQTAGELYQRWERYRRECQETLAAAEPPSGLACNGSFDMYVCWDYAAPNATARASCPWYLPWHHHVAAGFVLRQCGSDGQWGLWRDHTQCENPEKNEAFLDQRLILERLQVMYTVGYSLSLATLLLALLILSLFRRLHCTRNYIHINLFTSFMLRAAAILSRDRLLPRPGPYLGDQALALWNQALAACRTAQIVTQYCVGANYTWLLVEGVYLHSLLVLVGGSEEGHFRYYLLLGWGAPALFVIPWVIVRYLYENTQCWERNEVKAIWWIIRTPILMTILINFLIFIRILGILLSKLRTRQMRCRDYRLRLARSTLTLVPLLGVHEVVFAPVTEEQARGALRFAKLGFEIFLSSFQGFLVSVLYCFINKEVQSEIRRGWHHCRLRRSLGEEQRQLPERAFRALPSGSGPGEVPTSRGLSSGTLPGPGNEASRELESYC
In words: Functional cAMP formation (HTRF) in HEK-293 clonal cells expressing hGIPR, 0.1% bovine casein, without or with 1.0% human serum albumin. Conditions: 37° C.; for Emax: HEK293, cAMP, percent of maximal response to GIP(1-42)NH2, read-out: hGIPR Emax, % ± SEM; for EC50: cAMP, 0.1% bovine casein (no human serum albumin), geometric mean, read-out: hGIPR EC50, nM (SEM, n). The method, boiled down:
(§1)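 Readings of the HTRF 665/620 nm ratio, which falls as cAMP rises, were converted to nM cAMP using a standard curve after 30 min peptide exposure at 37° C.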

A further test has as its target T2, hGCGR (Homo sapiens, UniProt P47871).
T2 construct: expressed in transfected cells
Put plainly: Functional cAMP formation (HTRF) in HEK-293 clonal cells expressing hGCGR, 0.1% bovine casein, without or with 1.0% human serum albumin. Conditions: cAMP, 37° C., read-out: hGCGR EC50, nM (SEM, n). The method, boiled down: as §1
In general terms: Changes in cAMP serve as a functional read-out for many G protein-coupled receptors.

A further test has as its target hGLP-1R (Homo sapiens, UniProt P43220). In words: Functional cAMP formation (HTRF) in HEK-293 clonal cells expressing hGLP-1R, 0.1% bovine casein, without or with 1.0% human serum albumin. Conditions: 37° C.; for Emax: HEK293, cAMP, percent of maximal response to GLP-1(7-36)NH2, read-out: hGLP-1R Emax, % ± SEM; for EC50: cAMP, 0.1% bovine casein (no human serum albumin), geometric mean, read-out: hGLP-1R EC50, nM (SEM, n). Details: expressed in transfected cells. The method, boiled down:
as §1

Setting [1] is: 0.1% bovine casein and 1.0% human serum albumin.
[2] abbreviates: 0.1% bovine casein, arithmetic mean.
The mark [3] stands for this setting: 0.1% bovine casein (no human serum albumin), geometric mean.
Where [4] appears, read: 0.1% bovine casein and 1.0% human serum albumin, geometric mean (SEM, n).

Read-outs that look alike come from different tables or passages of the source. *1 amine or outer side, *2 acyl side, *3 side chain or, on linkers, in order; H or OH if unused. Where a SMILES comes first, the peptide text is derived from it. Side-chain parts run from the residue outwards. [ ]: non-standard residue; d: D form. The star is where a group is joined. αMePhe(2-F) = C[C@](N)(Cc1ccccc1F)C(=O)O; γGlu = O=C(O)[C@H](CCC(=O)[*:2])N[*:1]; C14 diacid = O=C(O)CCCCCCCCCCCCC(=O)*; αMeY = C[C@](N)(Cc1ccc(O)cc1)C(=O)O; αMeL = CC(C)C[C@](C)(N)C(=O)O; Orn = NCCC[C@H](N)C(=O)O; AEEA = NCCOCCOCC(=O)O; Aib = CC(C)(N)C(=O)O

T2 sequence (P47871 26-477): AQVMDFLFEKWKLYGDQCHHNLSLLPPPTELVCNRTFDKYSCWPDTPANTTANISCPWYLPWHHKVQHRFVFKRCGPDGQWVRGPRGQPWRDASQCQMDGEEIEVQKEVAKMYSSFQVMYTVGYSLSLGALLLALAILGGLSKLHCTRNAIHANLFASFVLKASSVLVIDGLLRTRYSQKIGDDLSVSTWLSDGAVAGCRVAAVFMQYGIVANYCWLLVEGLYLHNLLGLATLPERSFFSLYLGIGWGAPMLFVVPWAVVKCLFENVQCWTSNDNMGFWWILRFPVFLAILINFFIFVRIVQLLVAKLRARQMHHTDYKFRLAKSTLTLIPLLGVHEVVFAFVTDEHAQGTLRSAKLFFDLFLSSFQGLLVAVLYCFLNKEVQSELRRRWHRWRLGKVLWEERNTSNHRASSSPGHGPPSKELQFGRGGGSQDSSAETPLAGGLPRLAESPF
hGLP-1R, sequence (P43220 24-463): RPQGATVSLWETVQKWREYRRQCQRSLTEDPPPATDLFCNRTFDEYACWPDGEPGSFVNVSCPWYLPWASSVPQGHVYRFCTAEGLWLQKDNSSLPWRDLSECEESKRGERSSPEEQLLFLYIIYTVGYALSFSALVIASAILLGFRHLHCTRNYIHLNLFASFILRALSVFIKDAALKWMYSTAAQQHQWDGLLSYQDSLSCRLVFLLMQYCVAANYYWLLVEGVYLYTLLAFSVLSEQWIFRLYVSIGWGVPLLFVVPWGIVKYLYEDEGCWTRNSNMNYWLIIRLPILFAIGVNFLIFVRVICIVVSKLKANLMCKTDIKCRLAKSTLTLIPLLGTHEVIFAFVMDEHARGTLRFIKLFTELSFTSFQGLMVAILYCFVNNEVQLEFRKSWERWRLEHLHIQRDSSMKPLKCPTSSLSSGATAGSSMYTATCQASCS

A word on the Emax: it is the maximal effect, on the per cent scale that the assay sets. What is called EC50 is the concentration needed to bring the measured effect to its halfway point. Regarding `CC[C@H](C)[C@H](NC(=O)[C@H](CCCN)NC(=O)[C@H](CC(=O)O)NC(=O)[C@H](CC(C)C)NC(=O)[C@](C)(CC(C)C)NC(=O)[C@@H](NC(=O)C(C)(C)NC(=O)[C@H](Cc1ccncc1)NC(=O)[C@H](CC(=O)O)NC(=O)[C@H](CO)NC(=O)[C@@H](NC(=O)[C@](C)(Cc1ccccc1F)NC(=O)[C@@H](NC(=O)CNC(=O)[C@H](CCC(=O)O)NC(=O)C(C)(C)NC(=O)[C@@H](N)Cc1ccc(O)cc1)[C@@H](C)O)[C@@H](C)O)[C@@H](C)CC)C(=O)N[C@@H](C)C(=O)N[C@@H](CCC(N)=O)C(=O)NC(C)(C)C(=O)N[C@@H](CCCCNC(=O)COCCOCCNC(=O)CC[C@H](NC(=O)CCCCCCCCCCCCC(=O)O)C(=O)O)C(=O)N[C@@H](Cc1ccccc1)C(=O)N[C@H](C(=O)N[C@H](CCC(=O)O)C(=O)N[C@@](C)(Cc1ccc(O)cc1)C(=O)N[C@@H](CC(C)C)C(=O)N[C@H](C(=O)N[C@@H](CCCCNC(=O)COCCOCCNC(=O)CC[C@H](NC(=O)CCCCCCCCCCCCC(=O)O)C(=O)O)C(=O)NCC(=O)NCC(=O)N1CCC[C@H]1C(=O)N[C@@H](CO)C(=O)N[C@@H](CO)C(=O)NCC(=O)N[C@@H](C)C(=O)N1CCC[C@H]1C(=O)N1CCC[C@H]1C(=O)N1CCC[C@H]1C(=O)N[C@@H](CO)C(N)=O)[C@@H](C)CC)[C@@H](C)CC` [Example 340], the Emax was determined as 87.9% at hGIPR (setting [1]), 95.2% on hGIPR (setting [2]), 112% at hGLP-1R (setting [1]) and 105% on hGLP-1R (setting [2]). In addition, the EC50 was 0.0206 nM at hGIPR, greater than 9950 nM at hGCGR (setting [3]), greater than 9950 nM on hGCGR (setting [4]) and 0.409 nM on hGLP-1R.

On to `CC[C@H](C)[C@H](NC(=O)[C@H](CC(C)C)NC(=O)[C@](C)(Cc1ccc(O)cc1)NC(=O)[C@@H](CCC(=O)O)NC(=O)[C@@H](NC(=O)[C@H](Cc1ccccc1)NC(=O)[C@H](CCCN)NC(=O)C(C)(C)NC(=O)[C@H](CCC(N)=O)NC(=O)[C@H](C)NC(=O)[C@H](CCCCNC(=O)COCCOCCNC(=O)COCCOCCNC(=O)CC[C@H](NC(=O)CCCCCCCCCCCCC(=O)O)C(=O)O)NC(=O)[C@H](CCCN)NC(=O)[C@H](CC(=O)O)NC(=O)[C@H](CC(C)C)NC(=O)[C@](C)(CC(C)C)NC(=O)[C@@H](NC(=O)C(C)(C)NC(=O)[C@H](Cc1ccc(O)cc1)NC(=O)[C@H](CC(=O)O)NC(=O)[C@H](CO)NC(=O)[C@@H](NC(=O)[C@](C)(Cc1ccccc1F)NC(=O)[C@@H](NC(=O)CNC(=O)[C@H](CCC(=O)O)NC(=O)C(C)(C)NC(=O)[C@@H](N)Cc1ccc(O)cc1)[C@@H](C)O)[C@@H](C)O)[C@@H](C)CC)[C@@H](C)CC)C(=O)N[C@@H](CCCCNC(=O)COCCOCCNC(=O)COCCOCCNC(=O)CC[C@H](NC(=O)CCCCCCCCCCCCC(=O)O)C(=O)O)C(=O)NCC(=O)NCC(=O)N1CCC[C@H]1C(=O)N[C@@H](CO)C(=O)N[C@@H](CO)C(=O)NCC(=O)N[C@@H](C)C(=O)N1CCC[C@H]1C(=O)N1CCC[C@H]1C(=O)N1CCC[C@H]1C(=O)N[C@@H](CO)C(N)=O` [Example 349] (H-Y[Aib]EGT[αMePhe(2-F)]TSDY[Aib]I[αMeL]LD[Orn]K([AEEA-AEEA-γGlu-C14 diacid])AQ[Aib][Orn]FI[dE][αMeY]LIK([AEEA-AEEA-γGlu-C14 diacid])GGPSSGAPPPS-NH2; N-terminus assumed), for which the Emax at hGIPR (setting [1]) was found to be 79.3%; on hGIPR (setting [2]), 95.9%; at hGLP-1R (setting [1]), 94.3%; on hGLP-1R (setting [2]), 99%. Also, the concentration giving a half-maximal response (EC50) at hGIPR is 0.015 nM; on hGCGR (setting [3]), greater than 9950 nM; at hGCGR (setting [4]), greater than 9950 nM; on hGLP-1R, 0.334 nM.
